Data reported in the NIST ThermoML archive (doi:10.1016/j.tca.2019.03.026).
Numbers after ± are expanded uncertainties.

What was measured:
[1] = for Normal melting temperature: DTA
[2] = Molar enthalpy of transition or fusion; conditions: DSC

In the case of `Cc1ccc(C)c(OCCCC(C)(C)C(=O)O)c1` [gemfibrozil], the Normal melting temperature ([1]; Crystal) is reported as 59.00 ± 0.4 °C, the Glass transition temperature ([1]; Glass, DSC) is reported as -32.00 ± 1 °C and the Normal melting temperature ([1]; Metastable crystal) is reported as 58.00 ± 0.4 °C. For the same molecule, the “Molar enthalpy of transition or fusion” value ([2]; Crystal) was 6.76 ± 0.454 kcal/mol and the “Molar enthalpy of transition or fusion” value ([2]; Metastable crystal) was 6.19 ± 0.502 kcal/mol.
